Results from patent US20240191177A1, “GROWTH PROMOTER FOR LACTIC ACID COCCI” (KIRIN HOLDINGS KABUSHIKI KAISHA, priority 2002, published 2024).

Experiments:
Type in all cases: cell-based
[1] = system: Lactococcus lactis subsp. lactis JCM5805 strain; assay: Growth promoting effect, MRS medium, anaerobic cultivation (OD600)
Experimental: A Lactococcus lactis subsp. lactis JCM5805 strain was used as the lactic acid coccus.
The bacteria were counted by measuring the OD600 (turbidity) of the medium using an absorbance meter (Biochrom GeneQuant 1300).
Measured values were expressed as mean±standard error. One-way analysis of variance was followed by Tukey's test, and cases where p<0.05 relative to the control group were evaluated as having a significant difference.

[2] = system: Lactococcus lactis subsp. lactis JCM5805 strain; assay: Growth promoting effect, GM17 medium, aerobic cultivation (OD600); settings: 0.5 to 2% by mass, 30° C. 24 hours, FIG. 4
Experimental: (§1) The lactic acid coccus described in Example 1, item (1), A was used.
The medium used was GM17 medium. […] Next, the bacterial cells were inoculated (seeded) so that the concentration of the bacterial cells was 0.1% (v/v) with respect to 10 ml of the prepared medium, and the medium inoculated with the bacterial cells was placed in an automatic cultivation searching device OT-201 (Oriental Instruments; sometimes referred to as “bioplotter” herein), and cultivated at 30° C. for 24 hours (stirring intensity condition: Medium).
(§2) Measurement was performed in a similar manner as described in Example 1, item (1), C.
(§3) Analysis was performed in a similar manner as described in Example 1, item (1), D.

[3] = system: Lactococcus lactis subsp. lactis JCM5805 strain; assay: Growth promoting effect, MRS medium, aerobic cultivation (OD600); settings: 0.5 to 2.0% by mass, 30° C. 24 hours, FIG. 2
Experimental: A Lactococcus lactis subsp. lactis JCM5805 strain was used as the lactic acid coccus. The medium used was MRS medium. […] Next, the bacterial cells were inoculated (seeded) so that the concentration of the bacterial cells was 0.1% (v/v) with respect to 10 ml of the medium, and the medium inoculated with the bacterial cells was placed in an automatic cultivation searching device OT-201 (Oriental Instruments: sometimes referred to as “bioplotter” herein), and cultivated at 30° ° C. for 24 hours (stirring intensity condition: Medium). The bacteria were counted by measuring the OD600 (turbidity) of the medium using an absorbance meter (Biochrom GeneQuant 1300). Measured values were expressed as mean±standard error. One-way analysis of variance was followed by Tukey's test, and cases where p<0.05 relative to the control group were evaluated as having a significant difference.

[4] = system: Pediococcus damnosus; assay: Growth promoting effect on lactic acid cocci of the genus Pediococcus, MRS medium, anaerobic (Example 6); settings: strain JCM5886, MRS medium, αKG 0.1 to 4 or 1 to 4% by mass, malic acid 0.1 to 2 or 1 to 2% by mass, FIG. 8
Experimental: (§4) The lactic acid cocci of the genus Pediococcus indicated in Table 5 were used as the bacterial cells.
(§5) Cultivation was performed in a similar manner as described in Example 1, item (1), B (i), except that α-ketoglutaric acid (concentrations shown in FIG. 8A (0.1 to 4% by mass) and FIG. 8C (1 to 4% by mass)) and malic acid (concentrations shown in FIG. 8B (0.1 to 2% by mass) and FIG. 8D (1 to 2% by mass)) were each added, as the dicarboxylic acids, to the medium (anaerobic cultivation).
as §2, §3

[5] = system: Pediococcus acidilactici; assay: as above; settings: strain JCM8797, MRS medium, αKG 0.1 to 4 or 1 to 4% by mass, malic acid 0.1 to 2 or 1 to 2% by mass, FIG. 8
Experimental: as §4, §5, §2, §3

[6] = system: Lactococcus lactis subsp. lactis JCM5805 strain; assay: Growth promoting effect, GM17 medium, anaerobic cultivation (OD600); settings: 0.5 to 2% by mass, 30° C. 24 hours, FIG. 3
Text: as §1
The medium used was a medium obtained by adding 20 g/L of glucose to M17 medium (Difco M17 Broth, BD; the composition thereof is indicated in Table 2; the same applies hereinafter in the present specification) (sometimes referred to as “GM17 medium” herein). […] Next, the bacterial cells were inoculated (seeded) in a 15-ml conical tube (FALCON) so that the concentration of the bacterial cells was 0.1% (v/v) with respect to 10 ml of the prepared medium, and cultivated at 30° ° C. for 24 hours in an incubator (TOKYO […] CO., LTD.) (static cultivation).
as §2, §3

[7] = 0.01 to 4.0% by mass, 30° C. 24 hours, FIG. 1A/1C

O=C(O)CC(O)(CC(=O)O)C(=O)O [citric acid, reference compound]
growth of the lactic acid coccus (OD600) as compared with the control ([1]; citric acid 0.25 to 1% by mass, FIG. 7): significantly promoted

O=C(O)CCC(=O)C(=O)O [αKG, α-ketoglutaric acid]
growth of the lactic acid coccus (OD600) as compared with the control [1, 7]: significantly promoted in a concentration-dependent manner | growth of the lactic acid coccus (OD600) as compared with the control [2]: promoted in a concentration-dependent manner | growth of the lactic acid coccus (OD600) as compared with the control [3]: significantly promoted in a concentration-dependent manner | growth of the lactic acid cocci belonging to the genus Pediococcus (OD600) as compared with the control [4]: significantly promoted in a concentration-dependent manner | growth of the lactic acid cocci belonging to the genus Pediococcus (OD600) as compared with the control [5]: significantly promoted in a concentration-dependent manner | growth of the lactic acid coccus (OD600) as compared with the control [6]: significantly promoted

O=C(O)CC(O)C(=O)O (stereo not shown) [malic acid]
growth of the lactic acid coccus (OD600) as compared with the control [1, 7]: significantly promoted in a concentration-dependent manner | growth of the lactic acid coccus (OD600) as compared with the control [2]: promoted in a concentration-dependent manner | growth of the lactic acid coccus (OD600) as compared with the control [3]: significantly promoted in a concentration-dependent manner | growth of the lactic acid cocci belonging to the genus Pediococcus (OD600) as compared with the control [4]: significantly promoted in a concentration-dependent manner | growth of the lactic acid cocci belonging to the genus Pediococcus (OD600) as compared with the control [5]: significantly promoted in a concentration-dependent manner | growth of the lactic acid coccus (OD600) as compared with the control [6]: significantly promoted
